Here are results for 97 compounds from ChEMBL document CHEMBL3507680, “University of Dundee, Gates Library screen for HepG2 cell viability”.

A short description of this data set: Human HepG2 cell viability assay in 384 well format. It is filed as toxicity, cell-based. Also on record: dose 125 nL, time 70.5 hour; cytotoxicity at 70.5 h: concentration not given beside the values. Particulars: HepG2 cells, read-out: Inhibition.
With `COCC1c2nnn(CC3CC3)c2CCN1C(=O)C1CCOCC1` (configuration not stated), the cytotoxicity at 70.5 h was -11.4%. The figure for `COc1cccc2c1ccn2CCNC(=O)CC(C)C` is -15.1%.

`CNS(=O)(=O)Cc1cccc(CNc2ccc(C#N)cn2)c1`: the cytotoxicity at 70.5 h was -10.5%. In the case of `COc1ccc(-c2noc(C3CCS(=O)(=O)C3)n2)cc1OC` (configuration not stated), the cytotoxicity at 70.5 h is -10.7%. In the case of `CCn1cc(S(=O)(=O)N2CCC(C3CCCCN(C)C3=O)CC2)c(C)n1` (configuration not stated), the cytotoxicity at 70.5 h came out at 7.12%.

`Cc1ccccc1OCC(=O)N1CC[C@]2(C[C@@H](OCC3CC3)CO2)C1`: the cytotoxicity at 70.5 h was -1.4%. Take `O=C(c1cc(Br)ccc1-n1cnnn1)N1CCCC1`: the cytotoxicity at 70.5 h is -3.68%. For `COCCCOc1ccc(C(=O)N(C)Cc2cccc(O)c2)cn1`, the cytotoxicity at 70.5 h was -8.37%. Regarding `Cc1cc(C2CCC2)nc(N(C)CCc2ccccn2)n1`, the cytotoxicity at 70.5 h was -5.51%.

As for `Cc1ccoc1C(=O)N1CC(C(=O)NCC2CC2)C2(CCOCC2)C1` (configuration not stated), the cytotoxicity at 70.5 h turned out to be 1.52%. In the case of `Cc1n[nH]c(C)c1CNc1nc(-c2ccco2)nc2c1CCNCC2`, the cytotoxicity at 70.5 h was found to be 5.99%. Consider `Cc1nnc(NC(=O)NC2CCCc3c2cnn3CCO)s1` (configuration not stated), for which the cytotoxicity at 70.5 h was -6.14%. As to `CC(=O)c1cc2ncc(C(=O)NC3CCCCC3)cc2[nH]1`, the cytotoxicity at 70.5 h came to 0.178%. In the case of `COCCN1C[C@H]2CN(C(=O)C3CC3)CCN2C1=O`, the cytotoxicity at 70.5 h is 3.48%. Regarding `CCc1c(C(=O)N2CCN(c3ncccn3)CC2)cnn1C(C)(C)C`, the cytotoxicity at 70.5 h was -2.98%.

For the compound `c1cncc(CN2CCCC(Nc3ncnc4c3CCNCC4)C2)c1` (configuration not stated), the cytotoxicity at 70.5 h is -11.7%. Take `Cc1cnc(C(=O)N2CCNCC2C(=O)NCc2ccncc2)cn1` (configuration not stated): the cytotoxicity at 70.5 h turned out to be 3.98%. The figure for `CS(=O)(=O)NC1CCN(C(=O)c2coc(CN3CCOCC3)c2)CC1` is -2.89%; for `O=C(c1cnccn1)N1CCCC2(CCN(c3ncccn3)C2)C1` (configuration not stated) it is 4.46%. In the case of `CCc1nc(C)ncc1C(=O)N1CC(C)CN(C)c2ccccc21` (configuration not stated), the cytotoxicity at 70.5 h is -7.55%. Take `CC(=O)c1c(C)nn(CC(=O)N2Cc3cnc(C(C)(C)C)nc3C2)c1C`: the cytotoxicity at 70.5 h is -5.26%. Consider `CC(Cn1ccnc1)NC(=O)N1CCN(Cc2cccs2)CC1` (configuration not stated), for which the cytotoxicity at 70.5 h came to 13.9%. For `COCC(=O)N1C[C@@H](OCc2ccncc2)[C@@H]2OCCC[C@@H]21`, the cytotoxicity at 70.5 h was 52.2%. The figure for `Cc1nc(-c2ccsc2)ccc1C(=O)NCCN1CCN(C)CC1` is 0.295%; for `CCC(=O)N1CCC(c2nc(O)c3c(n2)CN(C2CCCCC2)CC3)C1` (configuration not stated) it is 31.2%. As for `COc1cc(F)c(CN2CC[C@@](O)(C3CC3)[C@H](C)C2)cc1OC`, the cytotoxicity at 70.5 h was -3.1%. On to `Cc1nc(N2CCC(C(O)c3nccn3C)CC2)c2c(C)noc2n1` (configuration not stated), for which the cytotoxicity at 70.5 h was found to be 20.2%. With `CN1C[C@@H](F)[C@@H](OCc2nc3ccccc3n2C)C1`, the cytotoxicity at 70.5 h was -2.45%. Turning to `Cc1nc(-c2ccc(F)c(F)c2)cc(C2CCNCC2)n1`, the cytotoxicity at 70.5 h is -2.44%.

Consider `Cc1cccc(CN2CCC3(CCN(Cc4ccccn4)C3)C2=O)c1` (configuration not stated), for which the cytotoxicity at 70.5 h was determined as 27.9%.

As to `CC(C)CN1CCn2c(nc3cc(C(=O)NC(C)C)ccc32)C1`, the cytotoxicity at 70.5 h is -11.8%. For the compound `CN1CCN(C)c2cc(NC(=O)c3cc[nH]n3)ccc2C1`, the cytotoxicity at 70.5 h came to 6.77%. With `O=C([C@H]1C[C@@H]2CN(c3ncc(F)cn3)C[C@H]1O2)N1CCCC1`, the cytotoxicity at 70.5 h is -9.42%. For `Cc1cccc(NC(=O)[C@@H]2CCCN2Cc2ccc(C#N)cc2F)n1`, the cytotoxicity at 70.5 h is -0.253%. As for `O=S1(=O)CCC(N(Cc2nc3ccccc3o2)Cc2cccs2)C1` (configuration not stated), the cytotoxicity at 70.5 h came to 19.2%. `Cc1nc2c(c(N3CC=CC3)n1)CCN(Cc1ccoc1)CC2`: the cytotoxicity at 70.5 h was -2.75%. On to `CCNC(=O)CCC(=O)N1CCC(Oc2cc(C)ccc2C)CC1`, for which the cytotoxicity at 70.5 h was -19.2%.

Consider `CC(C)=CCN1C[C@H]2CC[C@@H]1CN(C(=O)CCc1n[nH]c(C)n1)C2`, for which the cytotoxicity at 70.5 h was -1.3%. The figure for `CC(C)N(C)C(=O)c1ccc(Cl)c(NC(=O)C2CCC2)c1` is 19.4%; for `Cc1nn(C)c2cn(C(C)C(=O)NCc3ccncc3)nc12` (configuration not stated) it is -2.93%; for `CCCOC1CCCN(C(=O)c2[nH]nc(C)c2Br)C1` (configuration not stated) it is -8.95%. Turning to `CN1CCC2(CC1)C(=O)N(c1cccnc1)c1ccc(F)cc12`, the cytotoxicity at 70.5 h was -0.57%. As for `Cn1cnnc1S(=O)(=O)C1CCN(S(=O)(=O)c2ccc(Cl)s2)CC1`, the cytotoxicity at 70.5 h came to 11.9%. Consider `O=C(NCCC(=O)N1CCCCCCC1)c1ccoc1`, for which the cytotoxicity at 70.5 h was -1.22%. The figure for `COCCC(=O)N(CCC#N)c1ccc2c(c1)OCCO2` is -0.557%; for `OC1CCN(c2ccnc(NCCN3CCc4ccccc4C3)n2)C1` (configuration not stated) it is -13.9%.

On to `COCCC(=O)N1CCC2(CC1)CN(S(C)(=O)=O)Cc1ccccc1O2`, for which the cytotoxicity at 70.5 h was -2.27%. The figure for `CCc1nc(CN(C)C2CCN(CCCOc3ccccc3)C2)no1` (configuration not stated) is 9.63%; for `c1csc(CCC2CCCCN2Cc2noc(C3CC3)n2)c1` (configuration not stated) it is -13%. Take `COC1CCN(C(=O)Nc2cc(C(F)(F)F)c[nH]c2=O)CC1`: the cytotoxicity at 70.5 h is -6.98%. In the case of `COCC(=O)N1CCC2(CCC2N(C)Cc2ccco2)CC1` (configuration not stated), the cytotoxicity at 70.5 h was 3.06%. As to `O=C(c1ccoc1)N1CC[C@@H]2[C@@H](CC1)OCCN2c1cccnc1`, the cytotoxicity at 70.5 h was -5.9%. Regarding `CCc1nc(C)c(C2CC(=O)Nc3c2c(-c2ccccn2)nn3C)[nH]1` (configuration not stated), the cytotoxicity at 70.5 h came out at 1.83%. On to `NCC(=O)N1CCCC(c2ccnc(Nc3cnccn3)n2)C1` (configuration not stated), for which the cytotoxicity at 70.5 h was -7.18%.

For `O=C(NCc1ccccc1)NCC(O)c1cccc(F)c1` (configuration not stated), the cytotoxicity at 70.5 h was -6.42%. As to `Cc1cc(S(=O)(=O)N2CCC(N3CCC(O)C3)CC2)c(Cl)cc1Cl` (configuration not stated), the cytotoxicity at 70.5 h was -4.51%. For `Cn1nc(Cl)cc1C(=O)N1CCC(C(=O)c2nc3ccccc3s2)CC1`, the cytotoxicity at 70.5 h worked out at 10.5%.

With `CC(C)c1nnc(CN2CCCC2Cn2cncn2)o1` (configuration not stated), the cytotoxicity at 70.5 h is -11.1%. Regarding `CCCc1nc(C(C)(C)NC(=O)C2CC(=O)N(CC(C)C)C2)no1` (configuration not stated), the cytotoxicity at 70.5 h is -4.84%. As to `CSc1ccc(CNC2(c3ccc(F)cc3)CCOCC2)cc1`, the cytotoxicity at 70.5 h is -3.89%. For the compound `Cc1cccc(CNC2CC(=O)N(CCc3cccc(Cl)c3)C2)n1` (configuration not stated), the cytotoxicity at 70.5 h was -8.39%.

Turning to `O=C(CNc1ccccc1Cl)Nc1cc(-n2cnnn2)ccc1F`, the cytotoxicity at 70.5 h was -117%. On to `CN1CCOC(CNCC(=O)NCCc2ccc(F)cc2)C1` (configuration not stated), for which the cytotoxicity at 70.5 h was -3.15%. As for `CN(C)C(=O)[C@@H]1CCO[C@@H]2CCN(CCOCc3ccccc3)C[C@H]21`, the cytotoxicity at 70.5 h was 20.6%.

On to `Cc1oc(-c2nc(C#N)c(N(C)C)o2)cc1S(=O)(=O)N1CCCC1`, for which the cytotoxicity at 70.5 h was -21.5%. On to `CC1CCN(C(=O)Cc2ccc(S(=O)(=O)C(F)F)cc2)CC1`, for which the cytotoxicity at 70.5 h was -11%. Turning to `Cc1ccc2c(n1)N(Cc1cccnc1)CCN(C(=O)C1CC=CC1)C2`, the cytotoxicity at 70.5 h was -9.79%.

Turning to `COCCC(=O)N1CCC2(COCc3cnc(NCC4CC4)nc32)C1` (configuration not stated), the cytotoxicity at 70.5 h was determined as 1.86%. `O=C(C1CCOC1)N1Cc2ccccc2OC2(CCOCC2)C1` (configuration not stated): the cytotoxicity at 70.5 h is -2.81%.

In the case of `Cc1cc(C)c2c(c1)C(NCc1nnc3n1CCC3)CCCO2` (configuration not stated), the cytotoxicity at 70.5 h is -5.63%. As to `Cc1ccc(C2(C(=O)N3CCC(n4cc(C(C)O)nn4)CC3)CC2)cc1` (configuration not stated), the cytotoxicity at 70.5 h was -7.08%.

As for `O=c1[nH]c2c(-c3ccccn3)nsc2c(=O)n1C1CCCCC1`, the cytotoxicity at 70.5 h was -5.9%. The figure for `O=C(C1CNCCN1C(=O)CCOc1ccccc1)N1CCCC1` (configuration not stated) is -1.81%; for `CC(=O)c1cccc(NC(=O)NCCc2nnc[nH]2)c1` it is -10.6%. On to `COc1ccccc1-c1cc(NC(=O)CCS(=O)(=O)C2CCCC2)[nH]n1`, for which the cytotoxicity at 70.5 h was found to be 25.9%.

With `c1cnn(CC2CN(Cc3noc(C4CC4)n3)CCO2)c1` (configuration not stated), the cytotoxicity at 70.5 h is -0.284%. Turning to `N#Cc1ccc(C(=O)N(Cc2ccncc2)C2CC2)cc1`, the cytotoxicity at 70.5 h was -6.43%. In the case of `O=C(NCc1ccc(F)cc1)N1CCC(C2OCCO2)CC1`, the cytotoxicity at 70.5 h was -10%. On to `Cc1nc(-c2ccsc2)ccc1C(=O)N(C)CC1CC1`, for which the cytotoxicity at 70.5 h was -7.16%. The figure for `Cc1n[nH]c(SCC(=O)N2C[C@H]3CC[C@@H]2CN(c2ncccn2)C3)n1` is -4.86%. The figure for `Cc1cnc(N2C(=O)CSC2c2ccc(F)cc2)s1` (configuration not stated) is -5.25%; for `Cc1nc(C(=O)N2CCOC(Cc3ccc(F)cc3)C2)co1` (configuration not stated) it is -3.27%; for `Cn1ccc2c(NC(=O)Cn3ncc4c(c3=O)CCCCC4)cccc21` it is 3.29%. The figure for `CNC(=O)C1Cc2ccccc2CN1C(=O)CC(C)C` (configuration not stated) is -10.1%; for `CN(C)CC1CSCCCN1C(=O)c1ccc(=O)[nH]c1` (configuration not stated) it is 10.8%; for `Cc1ccc(CNc2cc(C(=O)N3CCOCC3)nc(C)n2)cc1` it is -9.84%.

Regarding `COc1ccc(N(c2ccccc2)c2ccc(C(=O)O)s2)cc1`, the cytotoxicity at 70.5 h is -0.368%. As for `Cc1c(C2CCCN(C(=O)C3CC3)C2)n2c(nc1=O)CCC2` (configuration not stated), the cytotoxicity at 70.5 h is -3.86%. `Cc1nc(-c2ccncc2)ncc1C(C)NC(=O)C1=NN(C)C(=O)CC1` (configuration not stated): the cytotoxicity at 70.5 h was -8.41%. For `COc1cccc(S(=O)(=O)CCNCCn2cccn2)c1`, the cytotoxicity at 70.5 h was -10.6%. The figure for `Cc1noc(CCNC(=O)c2ccc(Br)c(S(=O)(=O)N(C)C)c2)n1` is -4.79%; for `CCOC(=O)c1cnn(-c2cc(Oc3ccccc3C)ncn2)c1N` it is 23.9%.

For the compound `Cc1noc(C)c1CN1CC[C@H]2OCC[C@@]2(C(=O)N2CCOCC2)C1`, the cytotoxicity at 70.5 h was -4.59%.

For `CO[C@H]1COC[C@@H]1NC(=O)C1(Oc2ccc(Cl)cc2)CCNCC1`, the cytotoxicity at 70.5 h was -6.36%. As for `O=C(C[S+]([O-])Cc1cccc(Cl)c1)NC1CCCC1` (configuration not stated), the cytotoxicity at 70.5 h was -3.67%. Regarding `c1ccc(O[C@H]2COCCN(Cc3c[nH]c4ccccc34)C2)cc1`, the cytotoxicity at 70.5 h was -6.76%.

For the compound `CC(=O)N(C)CCCc1cc(-c2ccccc2)no1`, the cytotoxicity at 70.5 h is -4.09%.
